Bases are written 5' to 3'; sugars and linkages follow in the same order, as letters with counts (s phosphorothioate, o phosphodiester; PS: all linkages phosphorothioate). The collection does not say whether C is 5-methylated. l = locked nucleic acid (LNA); d = 2'-deoxy (DNA)

For this data set, the target named is Tau. The data set is described as follows: rat primary cortical neurons, FLIPR, 25 uM ASO.
As to CCCGAGCCAAAGCCGA (sugars l3 d10 l3, PS), the calcium oscillation score is 50.6 % of control.

On to “ATTTCCAAATTCACTTTTAC (sugars llddlldddddddddlldll, PS)”, for which the calcium oscillation score was 122 % of control.

For the sequence AGCAATAGCAAACAG (sugars l3 d9 l3, PS), the calcium oscillation score was 52.8 % of control.

“CTCCTAGAACACAACAC (sugars l3 d10 l4, PS)”: the calcium oscillation score was 50.9 % of control.

As for GAATAACATTAACCCT (sugars l4 d8 l4, PS), the calcium oscillation score was 74.5 % of control.

With “TCTTCCATCACTTCGAACTC (sugars l3 d14 l3, PS)”, the calcium oscillation score is 45.2 % of control.

As for “CAGACCATCAATTTCCCT (sugars l2 d14 l2, PS)”, the calcium oscillation score is 72.5 % of control.

Regarding GTTGGATCAGAGGGTC (sugars l3 d10 l3, PS), the calcium oscillation score is 22.2 % of control.

Regarding AGGGACCCAATCTTCG (sugars l3 d10 l3, PS), the calcium oscillation score is 73.3 % of control.

For “TAGACTATTTGCACACTGCC (sugars l3 d14 l3, PS)”, the calcium oscillation score is 51.9 % of control.

In the case of “CAAACCAACTCAACATTACC (sugars l4 d14 l2, PS)”, the calcium oscillation score is 94.7 % of control.

For the sequence ATAGTCACTCTGGTGA (sugars l3 d10 l3, PS), the calcium oscillation score was 85.7 % of control.

As to “CTCAGCTAAGACCCTCAGGT (sugars l3 d14 l3, PS)”, the calcium oscillation score was 31.2 % of control.

As to “CCCAGCGTGATCTTCCATCA (sugars ldlllddddddddddlldll, PS)”, the calcium oscillation score is 124 % of control.

As for TGATTGTGGGCTTA (sugars l3 d8 l3, PS), the calcium oscillation score is 28.7 % of control.

“AACAAACAAAAATCCCCTA (sugars l4 d11 l4, PS)”: the calcium oscillation score is 85.7 % of control.

Take “TTTTTCTCTCTTAACTTTA (sugars l4 d11 l4, PS)”: the calcium oscillation score was 83.6 % of control.

Regarding “GTCTACCATGTCGATGCTGC (sugars l3 d14 l3, PS)”, the calcium oscillation score is 23.2 % of control.

For the sequence “AGACACCTCGTCAGCTAGCG (sugars l3 d14 l3, PS)”, the calcium oscillation score was 9.07 % of control.

In the case of ACATTCTATACTTCAG (sugars l4 d8 l4, PS), the calcium oscillation score is 71.4 % of control.

With CGTGGGTGATATTGTC (sugars l3 d10 l3, PS), the calcium oscillation score is 0 % of control.

On to CCTTTGAAAGTCCTTT (sugars l3 d9 l4, PS), for which the calcium oscillation score is 90.5 % of control.

Take “GGGAGGCAGACACCTCGTCA (sugars l3 d14 l3, PS)”: the calcium oscillation score was 102 % of control.

“GGTTAAGTGATTAACCAATT (sugars l3 d14 l3, PS)”: the calcium oscillation score is 157 % of control.

In the case of TTACACCACACTGTCG (sugars l3 d10 l3, PS), the calcium oscillation score is 32.1 % of control.

On to “ACCACACACTCTGATAC (sugars l4 d11 l2, PS)”, for which the calcium oscillation score is 69 % of control.

With “TATTTCCAAATTCACTTTTA (sugars lldldlddddddddddllll, PS)”, the calcium oscillation score was 127 % of control.

As for “CGTCTTTGCTTTTACTGACC (sugars l3 d14 l3, PS)”, the calcium oscillation score is 29.6 % of control.

“CACTCTCTGCATATATA (sugars l4 d10 l3, PS)”: the calcium oscillation score was 48 % of control.

For TTCCTCAGAAGGCATT (sugars l3 d10 l3, PS), the calcium oscillation score is 36.9 % of control.

Take “CTCAGCTCTTCCATAAGCAG (sugars l3 d14 l3, PS)”: the calcium oscillation score is 40.3 % of control.

For “TACCTTTTTATTTCCTC (sugars l4 d11 l2, PS)”, the calcium oscillation score was 41.6 % of control.

Take “CACCTCATTAAGATCAC (sugars l3 d10 l4, PS)”: the calcium oscillation score was 76.6 % of control.

For the sequence ATTTAGTTACTCATCC (sugars l4 d8 l4, PS), the calcium oscillation score was 72.6 % of control.

With “ATTTAATTTATTTTTTACTT (sugars l4 d12 l4, PS)”, the calcium oscillation score was 50.1 % of control.

On to “TATTTCCAAATTCACTTTTA (sugars lldlddldddddddddllll, PS)”, for which the calcium oscillation score is 114 % of control.

As for GTCTCAAATCAAACTA (sugars l4 d8 l4, PS), the calcium oscillation score was 60.6 % of control.

Regarding “TTTCCCCATTTATCCTT (sugars l4 d11 l2, PS)”, the calcium oscillation score was 87.4 % of control.

Regarding “ACAATTCTCAGCACACC (sugars l2 d11 l4, PS)”, the calcium oscillation score is 48.8 % of control.

Take “GAGACCACATTATCATCCAT (sugars l3 d14 l3, PS)”: the calcium oscillation score was 52.4 % of control.

For the sequence “GTTAACTCATCAACACC (sugars l4 d10 l3, PS)”, the calcium oscillation score is 86.6 % of control.

As to ACATCCTGCCATACCA (sugars l3 d11 l2, PS), the calcium oscillation score is 45 % of control.

For the sequence “AATATCCTTACCATCCTATC (sugars l2 d14 l4, PS)”, the calcium oscillation score is 59.1 % of control.

Take “CAGGGAGGCAGACACCTCGT (sugars l3 d14 l3, PS)”: the calcium oscillation score was 50.9 % of control.

For the sequence “CCTCCCTTTAATGCCAGGCC (sugars l3 d14 l3, PS)”, the calcium oscillation score was 34.2 % of control.

In the case of “ACCTTTTTCCATCTTACT (sugars l4 d12 l2, PS)”, the calcium oscillation score is 68.4 % of control.

For AATCCTGTGCTTCAG (sugars l3 d9 l3, PS), the calcium oscillation score was 57.5 % of control.

Consider “CTTTCTACTCAATTCCAG (sugars l3 d12 l3, PS)”, for which the calcium oscillation score was 45.5 % of control.

For “CCAAATTCCTCATAATCCA (sugars l2 d15 l2, PS)”, the calcium oscillation score is 75 % of control.

Consider CTACCATGTCGATG (sugars l3 d8 l3, PS), for which the calcium oscillation score was 6.9 % of control.

On to TTTGATAAAACATCCC (sugars l4 d8 l4, PS), for which the calcium oscillation score is 89 % of control.

Consider “TCCTCCATTGTAACTAC (sugars l2 d11 l4, PS)”, for which the calcium oscillation score is 63.9 % of control.

Regarding “AATGTCCAAAAATCCCC (sugars l2 d11 l4, PS)”, the calcium oscillation score is 53 % of control.

“CAAAATCCTTAATTTAACCA (sugars l4 d12 l4, PS)”: the calcium oscillation score was 60.6 % of control.

With “TTTTCAAACACACCTTCATT (sugars l2 d14 l4, PS)”, the calcium oscillation score was 98.6 % of control.

Take “GATGGATGTTGCCTAATGAG (sugars l3 d14 l3, PS)”: the calcium oscillation score was 0 % of control.

Regarding AGTCACTCTGGTGA (sugars l3 d8 l3, PS), the calcium oscillation score was 97.1 % of control.

On to AACTGGTTAGCCCTAA (sugars l3 d10 l3, PS), for which the calcium oscillation score was 31.3 % of control.

In the case of CAGCTAGCGTGGCGAG (sugars l3 d10 l3, PS), the calcium oscillation score was 0 % of control.

With “TTTCCCCATTTATCCTTC (sugars l2 d14 l2, PS)”, the calcium oscillation score was 49.4 % of control.

For “TCCATTCCCTCCAGAACCAT (sugars l3 d14 l3, PS)”, the calcium oscillation score was 61.9 % of control.

“CCTTTTAAAAGAACCCT (sugars l3 d11 l3, PS)”: the calcium oscillation score is 96 % of control.

TGTTTGATATTATCCT (sugars l3 d10 l3, PS): the calcium oscillation score is 104 % of control.

In the case of “TATTTCCAAATTCACTTTTA (sugars lldlldddddddddldldll, PS)”, the calcium oscillation score is 110 % of control.

For TTACAAAGTCCACTTTC (sugars l4 d9 l4, PS), the calcium oscillation score is 69 % of control.

As to “ATGATGGATGTTGCCTAATG (sugars l3 d14 l3, PS)”, the calcium oscillation score was 0 % of control.

Take “TCCAGGGACCCAATCTTCGA (sugars l3 d14 l3, PS)”: the calcium oscillation score is 0 % of control.

As to “TCACAACCCAAGATTCCC (sugars l2 d14 l2, PS)”, the calcium oscillation score was 69.5 % of control.
